Values after ≈ are worked out from the molar mass of the structure shown.
What was measured:
[1] = Potentiometric titration profile (pH1/2 values); assay type: physicochemical; settings: methylcellosolve:water 4:1, titration with 0.01N NaOH
[2] = Solubility (physico-chemical characteristics); assay type: physicochemical
[3] = tested on: S. aureus L 1097; experiment: MIC against clinical isolate methicillin-resistant staphylococci; assay type: cell-based
Procedure: (§1) The in vitro antibacterial activity of L 17392 was determined using the two-fold dilution method in microtiter system. Todd-Hewitt broth (Difco) was used for streptococci and Isosensitest broth (Oxoid) for staphylococci and gram-negative bacteria. Overnight broth cultures were diluted so that the final inoculum was about 10^4 colony-forming units per ml (cfu/ml).

[4] = tested on: S. aureus L 1524; experiment: as above; assay type: cell-based
Procedure: as §1

[5] = tested on: S. aureus L 1096; experiment: as above; assay type: cell-based
Procedure: as §1

[6] = tested on: S. aureus L 1526; experiment: as above; assay type: cell-based
Procedure: as §1

[7] = tested on: S. epidermidis L 1372; experiment: as above; assay type: cell-based
Procedure: as §1

[8] = tested on: S. epidermidis L 785; experiment: as above; assay type: cell-based
Procedure: as §1

[9] = tested on: S. epidermidis L 1142; experiment: as above; assay type: cell-based
Procedure: as §1

[10] = tested on: S. epidermidis L 835; experiment: as above; assay type: cell-based
Procedure: as §1

[11] = tested on: S. epidermidis L 1378; experiment: as above; assay type: cell-based
Procedure: as §1

[12] = tested on: Staplylococcus aureus Tour; experiment: In vitro antibacterial activity, two-fold dilution MIC in microtiter system; assay type: cell-based, Staphylococcus aureus
Procedure: as §1, with “(cfu/ml). […] The obtained results are reported in Table I below: | ^(a) Inoculum: 10^6 cfu/ml | ^(b) Determined in the presence of 30% bovine serum” for “(cfu/ml).”

[13] = tested on: staphylocci (S. aureus, S. epidermidis); experiment: Antibacterial activity against staphylococci, in words; assay type: cell-based
Procedure: as §1

[14] = tested on: Staphylococcus epieermidis ATCC 12228; experiment: In vitro antibacterial activity, two-fold dilution MIC in microtiter system; assay type: cell-based, Staphylococcus epidermidis; settings: Isosensitest broth, inoculum about 10^4 cfu/ml, 18-24 h at 37° C.
Procedure: as §1

[15] = tested on: Escherichia coli SKF 12140; experiment: as above; assay type: cell-based; settings: Isosensitest broth, inoculum about 10^4 cfu/ml, 18-24 h at 37° C.
Procedure: as §1

[16] = tested on: Staphylococcus aureus ATCC 6538; experiment: as above; assay type: cell-based; settings: Isosensitest broth, inoculum about 10^4 cfu/ml, 18-24 h at 37° C.
Procedure: as §1

[17] = tested on: Streptococcus pneumoniae UC 41; experiment: as above; assay type: cell-based; settings: Todd-Hewitt broth, inoculum about 10^4 cfu/ml, 18-24 h at 37° C.
Procedure: as §1

[18] = tested on: Pseudomonas aeruginosa ATCC 10145; experiment: as above; assay type: cell-based; settings: Isosensitest broth, inoculum about 10^4 cfu/ml, 18-24 h at 37° C.
Procedure: as §1

[19] = tested on: Streptococcus pyogenes C 203; experiment: as above; assay type: cell-based; settings: Todd-Hewitt broth, inoculum about 10^4 cfu/ml, 18-24 h at 37° C.
Procedure: as §1

[20] = tested on: Streptococcus faecalis ATCC 7080; experiment: as above; assay type: cell-based; settings: Todd-Hewitt broth, inoculum about 10^4 cfu/ml, 18-24 h at 37° C.
Procedure: as §1

[21] = tested on: Proteus vulgaris × 19 H ATCC 881; experiment: as above; assay type: cell-based; settings: Isosensitest broth, inoculum about 10^4 cfu/ml, 18-24 h at 37° C.
Procedure: as §1

[22] = tested on: clinical isolate methicillin-resistant staphylococci (S. aureus, S. epidermidis); experiment: Antibacterial activity against methicillin-resistant staphylococci, in words; assay type: cell-based; settings: various clinical isolates
Procedure: as §1

[23] = pKa of a sample dissolved in methylcellosolve/water 4:1; assay type: physicochemical

## CC(=O)N[C@@H]1[C@@H](O[C@H]2c3ccc(c(Cl)c3)Oc3cc4cc(c3O)Oc3ccc(cc3Cl)C[C@@H]3NC(=O)[C@@H](N)c5ccc(O)c(c5)Oc5cc(O)cc(c5)[C@@H](NC3=O)C(=O)N[C@@H]4C(=O)N[C@@H]3C(=O)N[C@H]2C(=O)N[C@@H](C(=O)O)c2cc(O)cc(O)c2-c2cc3ccc2O)O[C@@H](CO)[C@H](O)[C@H]1O (stereo in doubt) [antibiotic L 17046]
[1]; five equivalents
  pH1/2 value, third titration slope: 11
[1]; one equivalent
  pH1/2 value, first titration slope: 5.0
  pH1/2 value, second titration slope: 7.0
[2]; dimethylformamide, dimethylsulfoxide, propyleneglycol and methylcellosolve
  solubility: freely soluble
[2]; methanol
  solubility: slightly soluble
[2]; n-hexane, ethyl ether and acetone
  solubility: almost insoluble
[2]; water at pH>8.0
  solubility: freely soluble

## N[C@H]1C(=O)N[C@@H]2Cc3ccc(c(Cl)c3)Oc3cc4cc(c3O)Oc3ccc(cc3Cl)[C@@H](O)[C@@H]3NC(=O)[C@H](NC(=O)[C@@H]4NC(=O)[C@@H](NC2=O)c2cc(O)cc(c2)Oc2cc1ccc2O)c1ccc(O)c(c1)-c1c(O)cc(O)cc1[C@@H](C(=O)O)NC3=O [antibiotic L 17392, deglucoteicoplanin]
[3]
  MIC: 0.05 µg/mL (≈ 0.0417 µM)
[4]
  MIC: 0.1 µg/mL (≈ 0.0834 µM)
[5]
  MIC: 0.05 µg/mL (≈ 0.0417 µM)
[6]
  MIC: 0.05 µg/mL (≈ 0.0417 µM)
[7]
  MIC: 0.2 µg/mL (≈ 0.167 µM)
[8]
  MIC: 0.05 µg/mL (≈ 0.0417 µM)
[9]
  MIC: 0.05 µg/mL (≈ 0.0417 µM)
[10]
  MIC: 0.05 µg/mL (≈ 0.0417 µM)
[11]
  MIC: 0.05 µg/mL (≈ 0.0417 µM)
[12]; Determined in the presence of 30% bovine serum
  MIC: 0.2 µg/mL
[12]; Inoculum: 10^6 cfu/ml
  MIC: 0.2 µg/mL (≈ 0.167 µM)
[12]; Isosensitest broth, inoculum about 10^4 cfu/ml, 18-24 h at 37° C.
  MIC: 0.05 µg/mL (≈ 0.0417 µM)
[13]
  activity against staphylococci (in words): very active
[14]
  MIC: 0.0125 µg/mL (≈ 0.0104 µM)
[15]
  MIC: 25 µg/mL (≈ 20.9 µM)
[16]
  MIC: 0.025 µg/mL (≈ 0.0209 µM)
[17]
  MIC: 0.05 µg/mL (≈ 0.0417 µM)
[18]
  MIC: > 100 µg/mL
[19]
  MIC: 0.05 µg/mL (≈ 0.0417 µM)
[20]
  MIC: 0.1 µg/mL (≈ 0.0834 µM)
[21]
  MIC: 50 µg/mL (≈ 41.7 µM)
[2]; aqueous methanol, ethanol and acetone
  solubility: soluble
[2]; ethyl alcohol and dimethylformamide
  solubility: slightly soluble
[2]; water at a pH higher than 9
  solubility: soluble
[22]
  activity against methicillin-resistant staphylococci (in words): very effective

## deglucoteicoplanin benzyl ester, hydrochloride
[23]
  pKa value: 6.67

From patent publication US4882419A, “Process for preparing antibiotic L 17392 (deglucoteicoplanin)” (Gruppo Lepetit S.p.A., priority 1984, dated 1989)
